Laboratory results published in patent US12233161B1, “Lipids and lipid nanoparticle formulations” (LONGUIDE BIOPHARMA CORPORATION, priority 2024, dated 2025).

Legend:
[1] = Particle size and PDI of nucleic acid lipid nanoparticle preparations by dynamic light scattering; type: physicochemical
Method: The 7.5 μL nucleic acid lipid nanoparticle solution (containing approximately 0.04 mg/mL mRNA) was taken and added with 200 μL ultrapure water, mixed by gentle blowing using a pipette tip, and the particle size of the nanopreparation was detected by dynamic lightscattering (DLS) using a Malvern Dynamic Light Scattering Instrument (Malvern Instruments Ltd., ZEN3700, UK).
27.5 μL nucleic acid lipid nanoparticle solution (containing about 0.04 mg/mL mRNA) was taken and added with 200 μL ultrapure water. A pipette tip was used to gently blow the sample and mix well. The particle size of the nanopreparation was detected by Malvern Dynamic Light Scattering Instrument (Malvern Instruments Ltd., ZEN3700, UK). After the detection, the sample was recovered to an EP tube, and 600 μL of ultrapure water was added, gently blown with a pipette tip, and the potential of the nanopreparation was measured by a Malvern particle size meter.

[2] = test system: mice; assay: In vivo delivery of FLuc-mRNA lipid nanoparticles in mice, in vivo imaging (IVIS)
Method in brief: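 Mice (n=3) received about 75 μL FLuc-mRNA LNP per mouse intramuscularly (rectus femoris), intravenously (tail vein), intraperitoneally or subcutaneously (back). After injection, D-luciferin (200 μL, 15 mg/mL) was given i.p. 10-15 min before IVIS imaging.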

[3] = DMG-PEG2000:DSPC:Chol:Lipid 1.00:11.50:22.50:65.00, N/P 45, mRNA LNP
[4] = DMG-PEG2000:DSPC:Chol:Lipid 1.00:16.00:48.00:35.00, N/P 30, mRNA LNP
[5] = DMG-PEG2000:DSPC:Chol:Lipid 1.40:11.15:38.95:48.50, N/P 45, mRNA LNP
[6] = DMG-PEG2000:DSPC:Chol:Lipid 1.00:11.50:22.50:65.00, N/P 45, IV, liver
[7] = DMG-PEG2000:DSPC:Chol:Lipid 1.00:11.50:22.50:65.00, N/P 45, IV, lung
[8] = DMG-PEG2000:DSPC:Chol:Lipid 1.00:11.50:22.50:65.00, N/P 45, IV, spleen
[9] = DMG-PEG2000:DSPC:Chol:Lipid 1.00:16.00:48.00:35.00, N/P 30, IV, liver
[10] = DMG-PEG2000:DSPC:Chol:Lipid 1.00:16.00:48.00:35.00, N/P 30, IV, lung
[11] = DMG-PEG2000:DSPC:Chol:Lipid 1.00:16.00:48.00:35.00, N/P 30, IV, spleen
[12] = DMG-PEG2000:DSPC:Chol:Lipid 1.40:11.15:38.95:48.50, N/P 48, mRNA LNP
[13] = DMG-PEG2000:DSPC:Chol:Lipid 1.77:14.07:49.16:35.00, N/P 48, mRNA LNP
[14] = DMG-PEG2000:DSPC:Chol:Lipid 1.09:8.66:30.25:60.00, N/P 13.3, mRNA LNP
[15] = DMG-PEG2000:DSPC:Chol:Lipid 1.40:11.15:38.95:48.50, N/P 13.3, mRNA LNP
[16] = DMG-PEG2000:DSPC:Chol:Lipid 1.40:11.15:38.95:48.50, N/P 16.7, mRNA LNP
[17] = DMG-PEG2000:DSPC:Chol:Lipid 1.00:16.00:48.00:35.00, N/P 18, mRNA LNP
[18] = DMG-PEG2000:DSPC:Chol:Lipid 1.50:4.00:69.50:25.00, N/P 18, mRNA LNP
[19] = DMG-PEG2000:DSPC:Chol:Lipid 1.50:16.00:17.50:65.00, N/P 45, mRNA LNP
[20] = DMG-PEG2000:DSPC:Chol:Lipid 1.77:14.07:49.16:35.00, N/P 30, mRNA LNP
[21] = DMG-PEG2000:DSPC:Chol:Lipid 1.00:16.00:48.00:35.00, N/P 18, IV, liver
[22] = DMG-PEG2000:DSPC:Chol:Lipid 1.00:16.00:48.00:35.00, N/P 18, IV, lung
[23] = DMG-PEG2000:DSPC:Chol:Lipid 1.00:16.00:48.00:35.00, N/P 18, IV, spleen
[24] = DMG-PEG2000:DSPC:Chol:Lipid 1.50:16.00:17.50:65.00, N/P 45, IV, liver
[25] = DMG-PEG2000:DSPC:Chol:Lipid 1.50:16.00:17.50:65.00, N/P 45, IV, lung
[26] = DMG-PEG2000:DSPC:Chol:Lipid 1.50:16.00:17.50:65.00, N/P 45, IV, spleen
[27] = DMG-PEG2000:DSPC:Chol:Lipid 0.95:7.58:26.47:65.00, N/P 18, mRNA LNP
[28] = DMG-PEG2000:DSPC:Chol:Lipid 1.40:11.15:38.95:48.50, N/P 18, mRNA LNP
[29] = DMG-PEG2000:DSPC:Chol:Lipid 1.40:11.15:38.95:48.50, N/P 18, IV, whole body scan
[30] = DMG-PEG2000:DSPC:Chol:Lipid 1.40:11.15:38.95:48.50, N/P 30, mRNA LNP
[31] = DMG-PEG2000:DSPC:Chol:Lipid 1.40:11.15:38.95:48.50, N/P 30, IM, whole body scan
[32] = DMG-PEG2000:DSPC:Chol:Lipid 1.40:11.15:38.95:48.50, N/P 30, IV, body (whole body scan)
[33] = DMG-PEG2000:DSPC:Chol:Lipid 1.40:11.15:38.95:48.50, N/P 18, IM, whole body scan

## CCCCCCCCCCCCOC(=O)C(O)CN(CCCN(CC(O)C(=O)OCCCCCCCCCCCC)CC(O)C(=O)OCCCCCCCCCCCC)CCCN(CC(O)C(=O)OCCCCCCCCCCCC)CC(O)C(=O)OCCCCCCCCCCCC (centres unmarked) [Compound L0269]
[1]; [3]
  PDI: 0.06 ± 0.01
  Particle size: 128.20 ± 0.89 nm
[1]; [4]
  PDI: 0.11 ± 0.01
  Particle size: 125.17 ± 1.03 nm
[1]; [5]
  PDI: 0.10 ± 0.01
  Particle size: 142.10 ± 0.78 nm
[2]; DMG-PEG2000:DSPC:Chol:Lipid 1.00:11.50:22.50:65.00, N/P 45, IV, body
  IVIS: 9.49 × 10^8
[2]; [6]
  % of organ targeting: 69.52%
  IVIS: 2.05 × 10^8
[2]; [7]
  % of organ targeting: 0.64%
  IVIS: 1.88 × 10^6
[2]; [8]
  % of organ targeting: 29.84%
  IVIS: 8.80 × 10^7
[2]; DMG-PEG2000:DSPC:Chol:Lipid 1.00:16.00:48.00:35.00, N/P 30, IV, body
  IVIS: 5.46 × 10^8
[2]; [9]
  % of organ targeting: 28.77%
  IVIS: 7.87 × 10^7
[2]; [10]
  % of organ targeting: 0.33%
  IVIS: 8.92 × 10^5
[2]; [11]
  % of organ targeting: 70.91%
  IVIS: 1.94 × 10^8
[2]; DMG-PEG2000:DSPC:Chol:Lipid 1.40:11.15:38.95:48.50, N/P 45, IM, whole body scan
  IVIS: 3.83 × 10^7
[2]; certain formulations, Table 2
  in vivo delivery efficiency as compared to the benchmark compound SM102: superior in vivo delivery efficiency

## CCCCCCOCOCCCCCCOC(=O)C(O)CN(CCCN(CC(O)C(=O)OCCCCCCOCOCCCCCC)CC(O)C(=O)OCCCCCCOCOCCCCCC)CCCN(CC(O)C(=O)OCCCCCCOCOCCCCCC)CC(O)C(=O)OCCCCCCOCOCCCCCC (centres unmarked) [Compound L0270]
[1]; [12]
  PDI: 0.12 ± 0.00
  Particle size: 131.00 ± 1.32 nm
[1]; [13]
  PDI: 0.10 ± 0.03
  Particle size: 144.83 ± 1.39 nm
[2]; DMG-PEG2000:DSPC:Chol:Lipid 1.40:11.15:38.95:48.50, N/P 48, IM, whole body scan
  IVIS: 2.09 × 10^7
[2]; DMG-PEG2000:DSPC:Chol:Lipid 1.40:11.15:38.95:48.50, N/P 48, IV, whole body scan
  IVIS: 1.56 × 10^9
[2]; DMG-PEG2000:DSPC:Chol:Lipid 1.77:14.07:49.16:35.00, N/P 48, IH, whole body scan
  IVIS: 2.89 × 10^6
[2]; certain formulations, Table 2
  in vivo delivery efficiency as compared to the benchmark compound SM102: superior in vivo delivery efficiency

## CCCCCCOCOCCCCCCOC(=O)C(O)CN(CCCN(C)CCCN(CC(O)C(=O)OCCCCCCOCOCCCCCC)CC(O)C(=O)OCCCCCCOCOCCCCCC)CC(O)C(=O)OCCCCCCOCOCCCCCC (centres unmarked) [Compound L0271]
[1]; [14]
  PDI: 0.06 ± 0.01
  Particle size: 145.73 ± 2.21 nm
[1]; [15]
  PDI: 0.04 ± 0.03
  Particle size: 124.63 ± 0.70 nm
[2]; DMG-PEG2000:DSPC:Chol:Lipid 1.09:8.66:30.25:60.00, N/P 13.3, IM, whole body scan
  IVIS: 3.27 × 10^6
[2]; DMG-PEG2000:DSPC:Chol:Lipid 1.40:11.15:38.95:48.50, N/P 13.3, IV, whole body scan
  IVIS: 4.16 × 10^8

## CCCCCCOCOCCCCCCOC(=O)C(O)CN(CCN(C)CCN(CC(O)C(=O)OCCCCCCOCOCCCCCC)CC(O)C(=O)OCCCCCCOCOCCCCCC)CC(O)C(=O)OCCCCCCOCOCCCCCC (centres unmarked) [Compound L0272]
[1]; [16]
  PDI: 0.09 ± 0.02
  Particle size: 137.20 ± 0.61 nm
[2]; DMG-PEG2000:DSPC:Chol:Lipid 1.40:11.15:38.95:48.50, N/P 16.7, IM, whole body scan
  IVIS: 9.96 × 10^7
[2]; DMG-PEG2000:DSPC:Chol:Lipid 1.40:11.15:38.95:48.50, N/P 16.7, IV, whole body scan
  IVIS: 9.45 × 10^8
[2]; certain formulations, Table 2
  in vivo delivery efficiency as compared to the benchmark compound SM102: superior in vivo delivery efficiency

## CCCCCCCCCCCCNC(=O)C(O)CN(CCCN(CCCCCCO)CCCN(CC(O)C(=O)NCCCCCCCCCCCC)CC(O)C(=O)NCCCCCCCCCCCC)CC(O)C(=O)NCCCCCCCCCCCC (centres unmarked) [Compound L0274]
[1]; [17]
  PDI: 0.15 ± 0.01
  Particle size: 93.07 ± 0.26 nm
[1]; [18]
  PDI: 0.12 ± 0.00
  Particle size: 88.12 ± 0.68 nm
[1]; [19]
  PDI: 0.47 ± 0.04
  Particle size: 232.87 ± 6.17 nm
[1]; [20]
  PDI: 0.13 ± 0.01
  Particle size: 79.38 ± 0.91 nm
[2]; DMG-PEG2000:DSPC:Chol:Lipid 1.00:16.00:48.00:35.00, N/P 18, IV, body
  IVIS: 3.12 × 10^8
[2]; [21]
  % of organ targeting: 29.22%
  IVIS: 4.76 × 10^7
[2]; [22]
  % of organ targeting: 8.16%
  IVIS: 1.33 × 10^7
[2]; [23]
  % of organ targeting: 62.62%
  IVIS: 1.02 × 10^8
[2]; DMG-PEG2000:DSPC:Chol:Lipid 1.50:4.00:69.50:25.00, N/P 18, IM, whole body scan
  IVIS: 6.20 × 10^6
[2]; DMG-PEG2000:DSPC:Chol:Lipid 1.50:16.00:17.50:65.00, N/P 45, IV, body
  IVIS: 1.52 × 10^8
[2]; [24]
  % of organ targeting: 1.10%
  IVIS: 4.17 × 10^6
[2]; [25]
  % of organ targeting: 84.18%
  IVIS: 3.19 × 10^8
[2]; [26]
  % of organ targeting: 14.72%
  IVIS: 5.58 × 10^7
[2]; DMG-PEG2000:DSPC:Chol:Lipid 1.77:14.07:49.16:35.00, N/P 30, IM, whole body scan
  IVIS: 1.23 × 10^7
[2]; certain formulations, Table 2
  in vivo delivery efficiency as compared to the benchmark compound SM102: superior in vivo delivery efficiency
  tissue-targeting specificity (lung vs spleen depending on molar percentage of compound): strong tissue-targeting specificity

## CCCCCCCCCCOC(=O)C(O)CN(C)CCN(C)CCN(C)CC(O)C(=O)OCCCCCCCCCC (centres unmarked) [Compound L0275]
[1]; [27]
  PDI: 0.13 ± 0.01
  Particle size: 121.27 ± 0.93 nm
[1]; [28]
  PDI: 0.17 ± 0.01
  Particle size: 85.45 ± 0.70 nm
[2]; DMG-PEG2000:DSPC:Chol:Lipid 0.95:7.58:26.47:65.00, N/P 18, IM, whole body scan
  IVIS: 1.47 × 10^6
[2]; [29]
  IVIS: 4.52 × 10^5

## CCCCCCCCCCCCOC(=O)C(O)CN(C)CCN(C)CCN(C)CC(O)C(=O)OCCCCCCCCCCCC (centres unmarked) [Compound L0276]
[1]; [30]
  PDI: 0.23 ± 0.02
  Particle size: 98.58 ± 2.89 nm
[2]; [31]
  IVIS: 1.81 × 10^6
[2]; [32]
  IVIS: 1.60 × 10^5

## CCCCCCCCCCNC(=O)C(O)CN(C)CCN(C)CCN(C)CC(O)C(=O)NCCCCCCCCCC (centres unmarked) [Compound L0277]
[1]; [28]
  PDI: 0.21 ± 0.00
  Particle size: 99.36 ± 2.16 nm
[2]; [33]
  IVIS: 2.60 × 10^5
[2]; [29]
  IVIS: 4.28 × 10^5

## CCCCCCCCCCCCNC(=O)C(O)CN(C)CCN(C)CCN(C)CC(O)C(=O)NCCCCCCCCCCCC (centres unmarked) [Compound L0278]
[1]; [28]
  PDI: 0.23 ± 0.01
  Particle size: 91.75 ± 0.80 nm
[2]; [33]
  IVIS: 3.77 × 10^5
[2]; [29]
  IVIS: 2.49 × 10^5

## CCCCCCOCOCCCCCCOC(=O)C(O)CN(C)CCN(C)CCN(C)CC(O)C(=O)OCCCCCCOCOCCCCCC (centres unmarked) [Compound L0279]
[1]; [30]
  PDI: 0.23 ± 0.02
  Particle size: 150.80 ± 1.97 nm
[2]; [31]
  IVIS: 2.87 × 10^5
[2]; [32]
  IVIS: 5.19 × 10^5
